Results: patent US20260183320A1, “METHOD FOR TREATING CANCER BY COMBINING ALKYLATING AGENT PRODRUG AND CELL CYCLE INHIBITOR” (ASCENTAWITS PHARMACEUTICALS, LTD., priority 2022, published 2026)

How the values were obtained:
HT29 cell line = HT29 cell line proliferation inhibition assay under normoxia and hypoxia (CTG); type: cell-based; settings: for additive cytotoxic effect in combination therapy with adavosertib / additive cytotoxic effect in combination therapy with ceralasertib: HT29 (p53-deficient); for Ratio single/combo under Hypoxia / Ratio single/combo under Normoxia / Normoxia/Hypoxia Ratio: HT29; for IC50: Homo sapiens, HT-29, HT29
Experimental: (§1) 24-well plates with glass inserts were used in assays under hypoxia, and ordinary plastic 24-well plates were used in assays under normoxia. • 2) The cells were incubated overnight at 37° C. in an incubator with 5% CO2. • 3) Treatment with Compounds
(§2) A hypoxia workstation was tuned to create a hypoxic environment, and an oxygen indicator was used to confirm the hypoxia in the workstation.
(§3) After cell plating for 24 hours, the 24-well plates with glass inserts were transferred into the hypoxia workstation.
(§4) The 24-well plates were placed on a shaker, uncovered and shaken to allow air exchange for 5 min.
(§5) For each well for combination therapy, 5 or 10 μL of medium was removed and 5 μL of adavosertib (to a final concentration of 1 or 10 μM) or ceralasertib (to a final concentration of 200 or 2000 μM), followed by incubation for 2 h.
(§6) To each well, 5 or 10 μL of the compound was added at a 100× concentration. Three replicate wells were set up for each group.
(§7) Gentle shaking was carried out until homogeneous mixing of the compound, and the 24-well plates were incubated for 3 hours in the hypoxia workstation with their lids being half opened.
(§8) 24 hours after plating of the cells, for each well for combination therapy, 5 or 10 μL of medium was removed and 5 μL of adavosertib (to a final concentration of 1 or 10 μM) or ceralasertib (to a final concentration of 200 or 2000 μM), followed by incubation for 2 h.

H460 cell line = H460 cell line proliferation inhibition assay under normoxia and hypoxia (CTG); type: cell-based; settings: for IC50: Homo sapiens, NCI-H460, H460
Experimental: as §1, §2, §3, §4, §5, §6, §7, §8
In the H460 cell proliferation inhibition assays, adavosertib was added to final concentrations of 3 μM and 30 μM, and ceralasertib was added to final concentrations of 2 μM, 20 µM and 1000 μM.

[1] = H460 (wild-type p53), normoxia or hypoxia

**Q.** What does the source list for `Cn1c(COP(=O)(NCCBr)NCCBr)cnc1[N+](=O)[O-]` [TH-302]?
**A.** additive cytotoxic effect in combination therapy with adavosertib (HT29 cell line; adavosertib at a high concentration, hypoxia): significant additive cytotoxic effect; additive cytotoxic effect in combination therapy with ceralasertib (HT29 cell line; ceralasertib at a high concentration, hypoxia): significant additive cytotoxic effect; additive cytotoxic effect in combination therapy with adavosertib (HT29 cell line; normoxia): did not exhibit any significant additive cytotoxic effects; additive cytotoxic effect in combination therapy with ceralasertib (HT29 cell line; normoxia): did not exhibit any significant additive cytotoxic effects; Ratio single/combo under Hypoxia (HT29 cell line; 1 μM adavosertib): 2.49; Ratio single/combo under Normoxia (HT29 cell line; 1 μM adavosertib): 2.41; Ratio single/combo under Hypoxia (HT29 cell line; 10 μM adavosertib): 8.68; Ratio single/combo under Normoxia (HT29 cell line; 10 μM adavosertib): 6.57; Ratio single/combo under Hypoxia (HT29 cell line; 200 μM ceralasertib): 7.11; Ratio single/combo under Normoxia (HT29 cell line; 200 μM ceralasertib): 1.24; Ratio single/combo under Hypoxia (HT29 cell line; 2000 μM ceralasertib): >44.66; Ratio single/combo under Normoxia (HT29 cell line; 2000 μM ceralasertib): 2.77; Normoxia/Hypoxia Ratio (HT29 cell line; monotherapy, Table 16): 74.35; Normoxia/Hypoxia Ratio (HT29 cell line; monotherapy, Table 18): 51.62; Normoxia/Hypoxia Ratio (HT29 cell line; with 1 μM adavosertib): 76.80; Normoxia/Hypoxia Ratio (HT29 cell line; with 10 μM adavosertib): 98.18; Normoxia/Hypoxia Ratio (HT29 cell line; with 200 μM ceralasertib): 294.78; Normoxia/Hypoxia Ratio (HT29 cell line; with 2000 μM ceralasertib): >821.56; IC50 (HT29 cell line; monotherapy, hypoxia, adavosertib series (Table 16)): 23.4 µM; IC50 (HT29 cell line; monotherapy, hypoxia, ceralasertib series (Table 18)): 14.3 µM; IC50 (HT29 cell line; monotherapy, normoxia, adavosertib series (Table 16)): ~1740 µM; IC50 (HT29 cell line; monotherapy, normoxia, ceralasertib series (Table 18)): 738 µM; IC50 (HT29 cell line; with 1 μM adavosertib, hypoxia): 9.38 µM; IC50 (HT29 cell line; with 1 μM adavosertib, normoxia): 720 µM; IC50 (HT29 cell line; with 10 μM adavosertib, hypoxia): 2.69 µM; IC50 (HT29 cell line; with 10 μM adavosertib, normoxia): 264 µM; IC50 (HT29 cell line; with 200 μM ceralasertib, hypoxia): 2.01 µM; IC50 (HT29 cell line; with 200 μM ceralasertib, normoxia): 592 µM; IC50 (HT29 cell line; with 2000 μM ceralasertib, hypoxia): < 0.32 µM; IC50 (HT29 cell line; with 2000 μM ceralasertib, normoxia): 266 µM; additive cytotoxic effect in combination therapy with adavosertib (H460 cell line; [1]): did not exhibit any significant additive cytotoxic effects; additive cytotoxic effect in combination therapy with ceralasertib (H460 cell line; [1]): did not exhibit any significant additive cytotoxic effects; Ratio combo/single under Normoxia (H460 cell line; H460, 2 μM ceralasertib): 1.07; Ratio single/combo under Hypoxia (H460 cell line; H460, 2 μM ceralasertib): 1.71; Ratio single/combo under Hypoxia (H460 cell line; H460, 3 μM adavosertib): 1.56; Ratio single/combo under Normoxia (H460 cell line; H460, 3 μM adavosertib): 1.12; Ratio single/combo under Hypoxia (H460 cell line; H460, 20 μM ceralasertib): 1.49; Ratio single/combo under Normoxia (H460 cell line; H460, 20 μM ceralasertib): 1.05; Ratio single/combo under Hypoxia (H460 cell line; H460, 30 μM adavosertib): 2.14; Ratio single/combo under Hypoxia (H460 cell line; H460, 1000 μM ceralasertib): >6.17; Ratio single/combo under Normoxia (H460 cell line; H460, 1000 μM ceralasertib): 1.36; Normoxia/Hypoxia Ratio (H460 cell line; H460, monotherapy, Table 17): 824.83; Normoxia/Hypoxia Ratio (H460 cell line; H460, monotherapy, Table 19): 1737.84; Normoxia/Hypoxia Ratio (H460 cell line; H460, with 2 μM ceralasertib): 3190.74; Normoxia/Hypoxia Ratio (H460 cell line; H460, with 3 μM adavosertib): 1448.06; Normoxia/Hypoxia Ratio (H460 cell line; H460, with 20 μM ceralasertib): 2464.52; Normoxia/Hypoxia Ratio (H460 cell line; H460, with 30 μM adavosertib): 1518.50; Normoxia/Hypoxia Ratio (H460 cell line; H460, with 1000 μM ceralasertib): >7853.33; IC50 (H460 cell line; monotherapy, hypoxia, adavosertib series (Table 17)): 0.0255 µM; IC50 (H460 cell line; monotherapy, hypoxia, ceralasertib series (Table 19)): 0.0185 µM; IC50 (H460 cell line; monotherapy, normoxia, adavosertib series (Table 17)): 21 µM; IC50 (H460 cell line; monotherapy, normoxia, ceralasertib series (Table 19)): 32.1 µM; IC50 (H460 cell line; with 2 μM ceralasertib, hypoxia): 0.0108 µM; IC50 (H460 cell line; with 2 μM ceralasertib, normoxia): 34.5 µM; IC50 (H460 cell line; with 3 μM adavosertib, hypoxia): 0.0163 µM; IC50 (H460 cell line; with 3 μM adavosertib, normoxia): 23.6 µM; IC50 (H460 cell line; with 20 μM ceralasertib, hypoxia): 0.0124 µM; IC50 (H460 cell line; with 20 μM ceralasertib, normoxia): 30.6 µM; IC50 (H460 cell line; with 30 μM adavosertib, hypoxia): 0.0119 µM; IC50 (H460 cell line; with 30 μM adavosertib, normoxia): 18.1 µM; IC50 (H460 cell line; with 1000 μM ceralasertib, hypoxia): < 0.003 µM; IC50 (H460 cell line; with 1000 μM ceralasertib, normoxia): 23.6 µM
